From US6737383B1, “Herbicidal oxadiazolidines” (priority 1999, dated 2004)

Assays:
[1] = system: blackgrass; assay: Test B pre/postemergence blackgrass; format: in vivo, Alopecurus myosuroides
In short: (§1)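 Response is a visual 0-to-10 score relative to untreated plants, where 0 means no effect and 10 means complete control, taken twelve to sixteen days after application. Treatments went onto soil at planting and onto foliage of 1- to 4-leaf plants, using a surfactant-containing non-phytotoxic solvent.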

[2] = system: cocklebur; assay: Test B pre/postemergence cocklebur; format: in vivo, Xanthium strumarium
In short: as §1

[3] = system: corn; assay: Test B pre/postemergence corn; format: in vivo, Zea mays
In short: as §1

[4] = system: crabgrass; assay: Test B pre/postemergence crabgrass; format: in vivo, Digitaria sanguinalis
In short: as §1

[5] = system: giant foxtail; assay: Test B pre/postemergence giant foxtail; format: in vivo, Setaria faberii
In short: as §1

[6] = system: morningglory; assay: Test B pre/postemergence morningglory; format: in vivo, Ipomoea hederacea
In short: as §1

[7] = system: pigweed; assay: Test B pre/postemergence pigweed; format: in vivo, Amaranthus retroflexus
In short: as §1

[8] = system: rape; assay: Test B pre/postemergence rape; format: in vivo, Brassica napus
In short: as §1

[9] = system: soybean; assay: Test B pre/postemergence soybean; format: in vivo, Glycine max
In short: as §1

[10] = system: sugar beet; assay: Test B pre/postemergence sugar beet; format: in vivo, Beta vulgaris
In short: as §1

[11] = system: velvetleaf; assay: Test B pre/postemergence velvetleaf; format: in vivo, Abutilon theophrasti
In short: as §1

[12] = system: wheat; assay: Test B pre/postemergence wheat; format: in vivo, Triticum aestivum
In short: as §1

[13] = system: purple nutsedge; assay: Test B pre/postemergence purple nutsedge; format: in vivo, Cyperus rotundus
In short: as §1

[14] = system: rice; assay: Test B flood test rice; format: in vivo, Oryza sativa
In short: (§2)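 Read-out is a visual response score from 0 (no effect) to 10 (complete control), assigned by comparison with untreated controls. Treatment was applied at the 2-leaf stage, and plants stayed in the greenhouse for twelve to sixteen days before scoring.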

[15] = system: smallflower flatsedge; assay: Test B flood test smallflower flatsedge; format: in vivo, Cyperus difformis
In short: as §2

[16] = system: duck salad; assay: Test B flood test duck salad; format: in vivo, Heteranthera limosa
In short: as §2

[17] = Preemergence, Rate 62 g/ha, scale of 0 to 10 where 0 is no effect and 10 is complete control
[18] = Preemergence, Rate 125 g/ha, 0 is no effect, 10 is complete control
[19] = Preemergence, Rate 250 g/ha, scale 0 to 10, 0 is no effect, 10 is complete control
[20] = Preemergence, Rate 500 g/ha, scale of 0 to 10 where 0 is no effect and 10 is complete control
[21] = Rate 62 g/ha, Postemergence, scale of 0 to 10 where 0 is no effect and 10 is complete control
[22] = Rate 125 g/ha, Postemergence, scale 0 to 10
[23] = Rate 500 g/ha, Postemergence, scale 0 to 10
[24] = Rate 62 g/ha, headed Pre-emergence (flood test species), scale 0 to 10 (0 no effect, 10 complete control)
[25] = Rate 125 g/ha, Pre-emergence, flood test species, scale 0 to 10 where 0 is no effect and 10 is complete control
[26] = Rate 250 g/ha, Pre-emergence, flood-test species, scale 0 to 10, 0 is no effect, 10 is complete control
[27] = Rate 500 g/ha, headed Pre-emergence (flood test species), scale 0 to 10 (0 no effect, 10 complete control)

Which results are given for `CC(C)N(C(=O)n1oc(=O)n(-c2ccc(OC(F)(F)F)cc2)c1=O)c1ccc(F)cc1` [Compound 202]?
Blackgrass plant response rating [1, 17]: 0; Blackgrass plant response rating (0 to 10 scale) [1, 18]: 0; Blackgrass plant response rating [1, 19]: 5; Plant response rating, Blackgrass [1, 20]: 2; Blackgrass plant response rating [1, 21]: 0; Blackgrass plant response rating [1, 22]: 3; Plant response rating (0 to 10; 0 is no effect, 10 is complete control), Blackgrass ([1]; Rate 250 g/ha, Postemergence): 5; Blackgrass plant response rating [1, 23]: 6; Cocklebur plant response rating [2, 17]: 0; Cocklebur plant response rating (0 to 10 scale) [2, 18]: 0; Cocklebur plant response rating [2, 19]: 0; Plant response rating, Cocklebur [2, 20]: 0; Cocklebur plant response rating [2, 21]: 0; Cocklebur plant response rating [2, 22]: 0; Plant response rating (0 to 10; 0 is no effect, 10 is complete control), Cocklebur ([2]; Rate 250 g/ha, Postemergence): 2; Cocklebur plant response rating [2, 23]: 2; Corn plant response rating [3, 17]: 0; Corn plant response rating (0 to 10 scale) [3, 18]: 0; Corn plant response rating [3, 19]: 0; Plant response rating, Corn [3, 20]: 0; Corn plant response rating [3, 21]: 0; Corn plant response rating [3, 22]: 0; Plant response rating (0 to 10; 0 is no effect, 10 is complete control), Corn ([3]; Rate 250 g/ha, Postemergence): 0; Corn plant response rating [3, 23]: 0; Crabgrass plant response rating [4, 17]: 3; Crabgrass plant response rating (0 to 10 scale) [4, 18]: 4; Crabgrass plant response rating [4, 19]: 6; Plant response rating, Crabgrass [4, 20]: 9; Crabgrass plant response rating [4, 21]: 0; Crabgrass plant response rating [4, 22]: 0; Plant response rating (0 to 10; 0 is no effect, 10 is complete control), Crabgrass ([4]; Rate 250 g/ha, Postemergence): 1; Crabgrass plant response rating [4, 23]: 4; Giant foxtail plant response rating [5, 17]: 2; Giant foxtail plant response rating (0 to 10 scale) [5, 18]: 6; Giant foxtail plant response rating [5, 19]: 7; Plant response rating, Giant foxtail [5, 20]: 10; Giant foxtail plant response rating [5, 21]: 0; Giant foxtail plant response rating [5, 22]: 0; Plant response rating (0 to 10; 0 is no effect, 10 is complete control), Giant foxtail ([5]; Rate 250 g/ha, Postemergence): 0; Giant foxtail plant response rating [5, 23]: 2; Morningglory plant response rating [6, 17]: 0; Morningglory plant response rating (0 to 10 scale) [6, 18]: 0; Morningglory plant response rating [6, 19]: 0; Plant response rating, Morningglory [6, 20]: 1; Morningglory plant response rating [6, 21]: 2; Morningglory plant response rating [6, 22]: 5; Plant response rating (0 to 10; 0 is no effect, 10 is complete control), Morningglory ([6]; Rate 250 g/ha, Postemergence): 8; Morningglory plant response rating [6, 23]: 9; Redroot pigweed plant response rating [7, 17]: 0; Redroot pigweed plant response rating (0 to 10 scale) [7, 18]: 0; Redroot pigweed plant response rating [7, 19]: 8; Plant response rating, Redroot pigweed [7, 20]: 3; Redroot pigweed plant response rating [7, 21]: 3; Redroot pigweed plant response rating [7, 22]: 4; Plant response rating (0 to 10; 0 is no effect, 10 is complete control), Redroot pigweed ([7]; Rate 250 g/ha, Postemergence): 6; Redroot pigweed plant response rating [7, 23]: 7; Rape plant response rating [8, 17]: 0; Rape plant response rating (0 to 10 scale) [8, 18]: 0; Rape plant response rating [8, 19]: 0; Plant response rating, Rape [8, 20]: 0; Rape plant response rating [8, 21]: 1; Rape plant response rating [8, 22]: 1; Plant response rating (0 to 10; 0 is no effect, 10 is complete control), Rape ([8]; Rate 250 g/ha, Postemergence): 1; Rape plant response rating [8, 23]: 4; Soybean plant response rating [9, 17]: 0; Soybean plant response rating (0 to 10 scale) [9, 18]: 0; Soybean plant response rating [9, 19]: 0; Plant response rating, Soybean [9, 20]: 0; Soybean plant response rating [9, 21]: 2; Soybean plant response rating [9, 22]: 2; Plant response rating (0 to 10; 0 is no effect, 10 is complete control), Soybean ([9]; Rate 250 g/ha, Postemergence): 3; Soybean plant response rating [9, 23]: 3; Sugarbeets plant response rating [10, 17]: 0; Sugarbeets plant response rating (0 to 10 scale) [10, 18]: 0; Sugarbeets plant response rating [10, 19]: 3; Plant response rating, Sugarbeets [10, 20]: 1; Sugarbeets plant response rating [10, 21]: 0; Sugarbeets plant response rating [10, 22]: 3; Plant response rating (0 to 10; 0 is no effect, 10 is complete control), Sugarbeets ([10]; Rate 250 g/ha, Postemergence): 4; Sugarbeets plant response rating [10, 23]: 4; Velvetleaf plant response rating [11, 17]: 0; Velvetleaf plant response rating [11, 19]: 6; Plant response rating, Velvetleaf [11, 20]: 1; Velvetleaf plant response rating [11, 21]: 0; Velvetleaf plant response rating [11, 22]: 0; Plant response rating (0 to 10; 0 is no effect, 10 is complete control), Velvetleaf ([11]; Rate 250 g/ha, Postemergence): 0; Wheat plant response rating [12, 17]: 0; Wheat plant response rating [12, 19]: 0; Plant response rating, Wheat [12, 20]: 2; Wheat plant response rating [12, 21]: 0; Wheat plant response rating [12, 22]: 0; Plant response rating (0 to 10; 0 is no effect, 10 is complete control), Wheat ([12]; Rate 250 g/ha, Postemergence): 0; Nutsedge plant response rating [13, 17]: 0; Nutsedge plant response rating [13, 21]: 0; Nutsedge plant response rating [13, 22]: 0; Plant response rating (0 to 10; 0 is no effect, 10 is complete control), Nutsedge ([13]; Rate 250 g/ha, Postemergence): 0; Nutsedge plant response rating [13, 23]: 0; Rice plant response rating [14, 24]: 0; Rice plant response rating [14, 25]: 0; Rice plant response rating [14, 26]: 0; Plant response rating, Rice [14, 27]: 0; S. Flatsedge plant response rating [15, 24]: 0; S. Flatsedge plant response rating [15, 25]: 0; S. Flatsedge plant response rating [15, 26]: 0; S. Flatsedge plant response rating ([15]; Rate 500 g/ha, Pre-emergence, flood test species, scale 0 to 10 (0 no effect, 10 complete control)): 0; Ducksalad plant response rating [16, 24]: 0; Ducksalad plant response rating [16, 25]: 0; Ducksalad plant response rating [16, 26]: 0; Plant response rating, Ducksalad [16, 27]: 0
